≈ marks a conversion by molar mass, not a printed value. Where two headings read alike, the source gives them in different places.
What was measured:
tRNA synthetase 2A2 = biological target: T1, tRNA synthetase 2A2 (Methanocaldococcus jannaschii, UniProt Q57834, D158V/F108W/H70A/I159A/L162V/L65V/Q109S/Y32L); assay: Cell-free GFP (K49TAG) expression assay: incorporation of non-natural amino acid by tRNA synthetase 2A2; type: biochemical, Methanococcus jannaschii; settings: 4 μM 2A2, compound of formula 9 at 4 mM, 30° C., 12 h, ex 476 nm / em 510 nm
T1 construct: made in house
Experimental: (§1) This example provides two novel tRNA synthetases useful with tetrazine-containing amino acids described herein. These two synthetases, designated “2A2” (SEQ ID NO: 4) and “2A9” (SEQ ID NO: 5) were produced by mutagenesis of wild-type tyrosyl-tRNA synthetase (TyrRS) from Methanococcus jannaschii (SEQ ID NO:3). Mutagenesis was performed by assembling overlapping oligonucleotides encoding the mutations by polymerase chain reaction (PCR). Mutants were screened utilizing the green fluorescent protein expression assay described below.
(§2) The ability of the novel tRNA synthetases to incorporate modified amino acids into a polypeptide was evaluated in cell-free protein synthesis reactions comprising DNA encoding SUPERFOLDER green fluorescent protein (GFP). The codon encoding position 49 of the GFP polypeptide, which normally encodes a lysine residue, was substituted with an amber stop codon (TAG). Full-length GFP is expressed only if the novel tRNA synthetases incorporate s modified amino acid into the polypeptide chain. The level of expression of full-length GFP can be evaluated by measuring fluorescence.
(§3) The GFP DNA containing the TAG stop codon was expressed in cell-free protein synthesis reactions as described in Zawada et al., 2011, Biotechnol. Bioeng. […]

[1] = Solubility in phosphate buffered saline pH 7.4 at room temperature; type: physicochemical; settings: PBS pH 7.4, room temperature; for solubility: phosphate buffered saline, aqueous buffer, thermodynamic from solid
Experimental: This example describes the solubility of three non-natural amino acids comprising tetrazine functional groups in phosphate buffered saline solution, with a pH of 7.4 (PBS). The example also illustrates and discusses the useful increased solubility of the pyridyl tetrazine amino acids provided herein when compared to a phenyl tetrazine-comprising non-natural amino acid of the art.
A suspension of AB 4091 was formed by adding 1.8 mg of AB 4091 to 5 mL of PBS. The suspension was vortexed for five minutes and sonicated for two minutes. Suspended particles remained. Additional PBS was added to the suspension in small portions, with vortexing, to reach a total volume of 25 mL of PBS. This mixture remained cloudy after shaking overnight at room temperature and turned clear following the addition of 2 mL of PBS with vortexing. Clarity of the solution was determined by visual inspection.
(§4) A solution of compound (9) was formed by adding 8.3 mg of compound (9) to 200 μL of PBS to form a homogeneous solution. An additional 11.5 mg of compound (9) was added to this solution, in small portions, over a period of 20 minutes, with vortexing. The solution remained clear after vortexing, with no particulates or cloudiness observed. The maximum solubility of compound (9) was not reached, due to its high solubility and the limited amount of the compound available.
as §4, with “compound (6)” for “compound (9)”, “adding 8.7” for “adding 8.3”, “a homogenous” for “a homogeneous”, “additional 26.9” for “additional 11.5”, “of 25” for “of 20”

tRNA synthetase 2A9 = biological target: T2, tRNA synthetase 2A9 (Methanocaldococcus jannaschii, UniProt Q57834, D158G/H70A/L162S/L65V/Q109S/Y32G); assay: Cell-free GFP (K49TAG) expression assay: incorporation of non-natural amino acid by tRNA synthetase 2A9; type: biochemical, Methanococcus jannaschii; settings: 2-4 μM 2A9, compound of formula 6 at 1 mM, 30° C., 12 h, ex 476 nm / em 510 nm
T2 construct: made in house
Experimental: as §1, §2, §3

[2] = solution remained clear, read-out: final concentration achieved (maximum solubility not reached)

T1 sequence (Q57834 whole entry Y32L/L65V/H70A/F108W/Q109S/D158V/I159A/L162V): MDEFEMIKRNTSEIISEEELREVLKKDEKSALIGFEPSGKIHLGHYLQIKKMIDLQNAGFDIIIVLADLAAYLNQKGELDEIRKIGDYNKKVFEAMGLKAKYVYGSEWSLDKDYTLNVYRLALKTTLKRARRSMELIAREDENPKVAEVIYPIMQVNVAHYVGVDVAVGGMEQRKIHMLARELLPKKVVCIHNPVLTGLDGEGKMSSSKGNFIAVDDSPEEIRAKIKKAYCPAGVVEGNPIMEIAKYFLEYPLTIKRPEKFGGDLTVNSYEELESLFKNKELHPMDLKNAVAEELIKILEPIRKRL
T2 sequence (Q57834 whole entry Y32G/L65V/H70A/Q109S/D158G/L162S): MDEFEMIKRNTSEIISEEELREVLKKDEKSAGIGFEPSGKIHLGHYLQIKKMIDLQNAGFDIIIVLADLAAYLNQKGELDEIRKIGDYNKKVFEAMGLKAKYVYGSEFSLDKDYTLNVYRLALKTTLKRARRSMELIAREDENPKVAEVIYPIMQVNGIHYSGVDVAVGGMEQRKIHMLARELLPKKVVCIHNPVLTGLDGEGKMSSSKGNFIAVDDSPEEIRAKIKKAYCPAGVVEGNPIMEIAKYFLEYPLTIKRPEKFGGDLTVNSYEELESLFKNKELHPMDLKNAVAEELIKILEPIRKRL

Q: What does the source list for `Cc1nnc(NCc2ccc(C[C@H](N)C(=O)O)nc2)nn1` [compound (9)]?
A: GFP fluorescence compared with native GFP positive control (tRNA synthetase 2A2): approximately equivalent to that of native GFP; solubility relative to the solubility of AB 4091 [1]: over 1600 fold; solubility [1, 2]: ≥ 342 mM

Q: With `Cc1nnc(Nc2ccc(CC(N)C(=O)O)cc2)nn1` (stereo not shown) [AB 4091, reference compound] as the molecule, how does the solubility ([1]; clarity by visual inspection, read-out: solubility) read?
A: ~0.215 mM (≈ 0.059 mg/mL)

Q: Which “solubility relative to the solubility of AB 4091” value [1] does the source give for `Cc1nnc(Nc2ccc(C[C@H](N)C(=O)O)cn2)nn1` [compound (6)] here?
A: over 3000 fold

Q: What about the solubility [1, 2] of the same molecule?
A: ≥ 647 mM

Q: What about the “GFP fluorescence compared with native GFP positive control” value (tRNA synthetase 2A9) of the same molecule?
A: approaches that of native GFP

Source: US9840493B2, “Modified amino acids comprising tetrazine functional groups, methods of preparation, and methods of their use” (SUTRO BIOPHARMA, INC., priority 2013, dated 2017)
